The text below walks through data of patent US9096601B2 (CSPC Zhongqi Pharmaceutical Technology (Shijiazhuang) Co., …, priority 2010, dated 2015).

The target in one assay is MET (Homo sapiens (Human), UniProt P08581). Kind of assay: Kinase inhibitory activity, isotopic labeling (γ-33P-ATP). It is filed as biochemical. The settings on record: compound at 10 μM.
The target of another assay is VEGFR2 (Homo sapiens (Human), UniProt P35968). Described as above. It is filed as biochemical. The settings on record: ATP 90 μM (Km). The essentials: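 Kinase 5-10 mU + substrate + γ-33P-ATP/10 mM Mg acetate + cpd, in 8 mM MOPS pH 7.0, 0.2 mM EDTA, 10 mM MnCl2. Stop w/ 3% phosphate; Filtermat A, 75 mM phosphate washes ×3, MeOH; scintillation count. IC50 from % inhibition.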

The target in the next assay is PDGFRα (Homo sapiens (Human), UniProt P16234). The description is as above. It is filed as biochemical. The settings on record: compound at 10 μM.
Chain of PDGFRα (P16234 24-1089): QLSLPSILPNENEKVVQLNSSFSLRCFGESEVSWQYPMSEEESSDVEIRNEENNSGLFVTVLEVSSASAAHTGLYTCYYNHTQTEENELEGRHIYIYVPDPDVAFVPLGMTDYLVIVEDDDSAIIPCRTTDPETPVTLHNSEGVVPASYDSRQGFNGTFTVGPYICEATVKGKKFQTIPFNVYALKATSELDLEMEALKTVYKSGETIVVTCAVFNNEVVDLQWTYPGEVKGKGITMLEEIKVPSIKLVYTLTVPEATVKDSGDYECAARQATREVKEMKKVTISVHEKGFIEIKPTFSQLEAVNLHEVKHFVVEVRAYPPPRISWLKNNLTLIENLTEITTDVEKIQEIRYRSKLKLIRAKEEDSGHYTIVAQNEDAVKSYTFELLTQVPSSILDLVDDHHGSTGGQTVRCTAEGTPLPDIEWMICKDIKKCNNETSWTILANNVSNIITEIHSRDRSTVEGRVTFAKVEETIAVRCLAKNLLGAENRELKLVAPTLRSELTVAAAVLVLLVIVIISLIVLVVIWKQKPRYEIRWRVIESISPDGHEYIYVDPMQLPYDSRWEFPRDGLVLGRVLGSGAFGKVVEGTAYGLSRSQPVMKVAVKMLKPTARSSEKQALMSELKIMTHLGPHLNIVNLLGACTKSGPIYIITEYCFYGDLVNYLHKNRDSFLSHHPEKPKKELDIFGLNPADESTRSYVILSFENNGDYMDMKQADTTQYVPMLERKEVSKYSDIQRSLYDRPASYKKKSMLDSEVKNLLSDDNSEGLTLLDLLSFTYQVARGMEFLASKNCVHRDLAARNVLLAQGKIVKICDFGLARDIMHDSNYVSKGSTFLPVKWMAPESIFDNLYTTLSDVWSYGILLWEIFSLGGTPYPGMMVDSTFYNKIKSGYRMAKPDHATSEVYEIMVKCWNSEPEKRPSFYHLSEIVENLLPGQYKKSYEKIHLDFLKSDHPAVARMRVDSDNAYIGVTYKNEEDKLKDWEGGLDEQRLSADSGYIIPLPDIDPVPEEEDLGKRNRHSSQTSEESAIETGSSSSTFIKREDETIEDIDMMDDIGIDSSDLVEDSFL
The target of the next assay is ALK (Homo sapiens (Human), UniProt Q9UM73). The description is as above. It is filed as biochemical. The following applies: compound at 10 μM.
The target in the next assay is c-SRC (Homo sapiens (Human), UniProt P12931). The description is as above. Format: biochemical. The settings on record: compound at 10 μM.
Chain of c-SRC (P12931 whole entry, looked up): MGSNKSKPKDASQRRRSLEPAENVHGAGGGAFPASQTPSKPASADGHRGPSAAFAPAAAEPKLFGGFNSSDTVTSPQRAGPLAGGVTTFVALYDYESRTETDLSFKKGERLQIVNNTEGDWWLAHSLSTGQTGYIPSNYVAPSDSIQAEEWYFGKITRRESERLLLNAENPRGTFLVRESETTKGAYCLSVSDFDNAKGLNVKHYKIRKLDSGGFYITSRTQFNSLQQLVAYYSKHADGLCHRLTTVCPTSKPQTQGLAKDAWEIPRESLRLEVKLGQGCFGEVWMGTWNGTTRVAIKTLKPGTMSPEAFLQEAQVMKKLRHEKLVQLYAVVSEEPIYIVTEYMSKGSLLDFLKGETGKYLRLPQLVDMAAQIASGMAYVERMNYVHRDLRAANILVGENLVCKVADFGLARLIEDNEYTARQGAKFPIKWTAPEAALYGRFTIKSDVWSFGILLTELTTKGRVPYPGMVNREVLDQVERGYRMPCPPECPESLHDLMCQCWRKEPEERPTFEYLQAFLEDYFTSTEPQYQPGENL
In the next assay the target is BTK (Homo sapiens (Human), UniProt Q06187). The assay is described as above. Format: biochemical. The following applies: compound at 10 μM.
Chain of BTK (Q06187 whole entry): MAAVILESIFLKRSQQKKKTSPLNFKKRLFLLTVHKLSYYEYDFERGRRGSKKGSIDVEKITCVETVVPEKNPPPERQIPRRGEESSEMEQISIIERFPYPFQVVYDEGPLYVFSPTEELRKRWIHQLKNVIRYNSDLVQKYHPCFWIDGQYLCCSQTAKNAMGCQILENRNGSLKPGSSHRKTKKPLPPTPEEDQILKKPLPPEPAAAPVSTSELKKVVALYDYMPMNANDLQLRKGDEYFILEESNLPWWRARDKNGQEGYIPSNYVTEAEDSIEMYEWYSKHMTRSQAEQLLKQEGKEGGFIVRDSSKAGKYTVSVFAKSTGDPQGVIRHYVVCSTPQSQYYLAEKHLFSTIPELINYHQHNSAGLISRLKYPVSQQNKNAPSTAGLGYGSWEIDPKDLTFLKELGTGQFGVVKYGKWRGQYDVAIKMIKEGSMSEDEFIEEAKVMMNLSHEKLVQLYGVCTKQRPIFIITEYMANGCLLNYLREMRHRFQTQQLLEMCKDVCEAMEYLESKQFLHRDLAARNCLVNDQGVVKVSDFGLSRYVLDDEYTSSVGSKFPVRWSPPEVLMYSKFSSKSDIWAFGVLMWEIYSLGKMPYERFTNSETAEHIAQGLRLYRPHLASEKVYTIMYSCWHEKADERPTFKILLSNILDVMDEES
In a further assay the target is c-KIT (Homo sapiens (Human), UniProt P10721). The assay is described as above. The settings on record: compound at 10 μM. Format: biochemical.
Chain of c-KIT (P10721 26-976): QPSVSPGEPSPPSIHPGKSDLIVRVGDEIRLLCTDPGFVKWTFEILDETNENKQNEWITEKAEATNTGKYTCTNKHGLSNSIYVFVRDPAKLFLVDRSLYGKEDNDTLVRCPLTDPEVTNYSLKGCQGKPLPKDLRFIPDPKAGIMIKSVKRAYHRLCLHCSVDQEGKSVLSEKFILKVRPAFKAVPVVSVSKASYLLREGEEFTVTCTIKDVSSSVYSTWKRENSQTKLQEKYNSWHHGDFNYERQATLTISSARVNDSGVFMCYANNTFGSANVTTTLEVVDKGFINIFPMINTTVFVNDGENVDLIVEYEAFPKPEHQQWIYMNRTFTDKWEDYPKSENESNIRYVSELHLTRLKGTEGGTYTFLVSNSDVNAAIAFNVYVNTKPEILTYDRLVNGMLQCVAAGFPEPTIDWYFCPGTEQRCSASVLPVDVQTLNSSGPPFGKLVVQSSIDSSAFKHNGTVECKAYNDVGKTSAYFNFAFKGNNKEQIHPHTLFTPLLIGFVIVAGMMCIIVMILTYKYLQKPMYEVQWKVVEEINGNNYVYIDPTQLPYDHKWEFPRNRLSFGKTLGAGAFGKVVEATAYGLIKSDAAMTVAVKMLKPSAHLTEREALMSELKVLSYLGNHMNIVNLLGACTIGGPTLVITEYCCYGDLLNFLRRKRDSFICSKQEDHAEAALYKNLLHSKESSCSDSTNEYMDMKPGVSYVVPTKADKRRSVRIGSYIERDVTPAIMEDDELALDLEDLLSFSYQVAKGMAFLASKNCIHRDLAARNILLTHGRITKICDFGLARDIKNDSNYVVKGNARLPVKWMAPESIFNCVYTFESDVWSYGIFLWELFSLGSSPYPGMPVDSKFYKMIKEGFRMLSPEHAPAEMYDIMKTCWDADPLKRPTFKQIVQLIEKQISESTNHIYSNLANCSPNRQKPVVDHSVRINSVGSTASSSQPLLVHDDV
Another assay deals with FLT3 (Homo sapiens (Human), UniProt P36888). The assay is described as above. It is filed as biochemical. The settings on record: compound at 10 μM.
Assay [1] has as its system non-small cell lung carcinoma cell strain H1975 (EGFR L858R/T790M mutation). Kind of assay: In-vitro tumor cell proliferation inhibition, MTT. The settings on record: 72 hours. Format: cell-based, human.
Assay [2] concerns non-small cell lung carcinoma cell strain H292 (EGFR WT). Kind of assay: In-vitro tumor cell proliferation inhibition, MTT. Format: cell-based, human. The following applies: 72 hours.
In assay [3] the test system is non-small cell lung carcinoma cell strain PC-9 (EGFR delE746-A750 deletion mutation). The assay can be described thus: In-vitro tumor cell proliferation inhibition, MTT. It is filed as cell-based, human. The settings on record: 72 hours.
The subject of assay [4] is non-small cell lung carcinoma cell strain HCC827. The assay can be described thus: In-vitro tumor cell proliferation inhibition, MTT. It is filed as cell-based, human. The settings on record: 72 hours. The essentials:
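Cells grown in RPMI-1640 with 10% FBS, seeded overnight (HCC827 at 6×10^4 cells/ml), then exposed to graded compound concentrations for 72 h at 37 °C, 5% CO2, with 1% DMSO solvent control. MTT absorbance at 570 nm; inhibition relative to control; triplicate wells, ≥3 repeats.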

The target in a further assay is EGFR L858R mutant type (Homo sapiens (Human), UniProt P00533, L858R). The assay can be described thus: Kinase inhibitory activity, isotopic labeling (γ-33P-ATP). It is filed as biochemical. The settings on record: ATP 200 μM (Km). The method, then: (§1) The object of this assay was to test the inventive compounds for the kinase inhibitory activity in vitro. In this assay, an isotopic labeling method was used to label the γ phosphate group on ATP. […] Staurosporine was used as a reference molecule (or referred to as a positive control). […] The IC50 value can be obtained by the calculation of the inhibitory rates at a series of different concentrations of the tested compounds.
(§2) To a reaction tube were successively added the buffer solution (8 mM MOPS, pH 7.0, 0.2 mM EDTA, 10 mM MnCl2), the kinase to be tested (5-10 mU) (EGFR/ALK/BTK/c-KIT/c-SRC/MET/PDGFRα/VEGFR2), the substrate for the kinase to be tested (a reference material), 10 mM of the solution of magnesium acetate and γ-^33 P-ATP, and different concentrations of the tested compounds. […] The reaction was terminated with […] of the 3% phosphate buffer solution. 10 μL of the reaction liquid was titrated on the Filtermat A membrane. The membrane was washed with 75 mM of the phosphate solution thrice (5 minutes each time), and then with methanol once, and finally dried. The membrane was subjected to a scintillation counting. The value of the scintillation counting reflected the phosphorylation level of the substrate and therefore could characterize the inhibition of the kinase activity.

The next assay addresses EGFR wild type (Homo sapiens (Human), UniProt P00533). Described as above. It is filed as biochemical. The settings on record: ATP 10 μM (Km). The method, then:
as §1, §2

Assay [5] addresses EGFR L858R/T790M double mutant type (Homo sapiens (Human), UniProt P00533, L858R/T790M). The description is as above. Format: biochemical. The following applies: ATP 45 μM (Km). On the procedure: as §1, §2

SMILES strings stand for the structures. A value given as a limit tells only on which side of the number the result lay.

Chain of EGFR L858R/T790M double mutant type (P00533 25-1210 T790M/L858R): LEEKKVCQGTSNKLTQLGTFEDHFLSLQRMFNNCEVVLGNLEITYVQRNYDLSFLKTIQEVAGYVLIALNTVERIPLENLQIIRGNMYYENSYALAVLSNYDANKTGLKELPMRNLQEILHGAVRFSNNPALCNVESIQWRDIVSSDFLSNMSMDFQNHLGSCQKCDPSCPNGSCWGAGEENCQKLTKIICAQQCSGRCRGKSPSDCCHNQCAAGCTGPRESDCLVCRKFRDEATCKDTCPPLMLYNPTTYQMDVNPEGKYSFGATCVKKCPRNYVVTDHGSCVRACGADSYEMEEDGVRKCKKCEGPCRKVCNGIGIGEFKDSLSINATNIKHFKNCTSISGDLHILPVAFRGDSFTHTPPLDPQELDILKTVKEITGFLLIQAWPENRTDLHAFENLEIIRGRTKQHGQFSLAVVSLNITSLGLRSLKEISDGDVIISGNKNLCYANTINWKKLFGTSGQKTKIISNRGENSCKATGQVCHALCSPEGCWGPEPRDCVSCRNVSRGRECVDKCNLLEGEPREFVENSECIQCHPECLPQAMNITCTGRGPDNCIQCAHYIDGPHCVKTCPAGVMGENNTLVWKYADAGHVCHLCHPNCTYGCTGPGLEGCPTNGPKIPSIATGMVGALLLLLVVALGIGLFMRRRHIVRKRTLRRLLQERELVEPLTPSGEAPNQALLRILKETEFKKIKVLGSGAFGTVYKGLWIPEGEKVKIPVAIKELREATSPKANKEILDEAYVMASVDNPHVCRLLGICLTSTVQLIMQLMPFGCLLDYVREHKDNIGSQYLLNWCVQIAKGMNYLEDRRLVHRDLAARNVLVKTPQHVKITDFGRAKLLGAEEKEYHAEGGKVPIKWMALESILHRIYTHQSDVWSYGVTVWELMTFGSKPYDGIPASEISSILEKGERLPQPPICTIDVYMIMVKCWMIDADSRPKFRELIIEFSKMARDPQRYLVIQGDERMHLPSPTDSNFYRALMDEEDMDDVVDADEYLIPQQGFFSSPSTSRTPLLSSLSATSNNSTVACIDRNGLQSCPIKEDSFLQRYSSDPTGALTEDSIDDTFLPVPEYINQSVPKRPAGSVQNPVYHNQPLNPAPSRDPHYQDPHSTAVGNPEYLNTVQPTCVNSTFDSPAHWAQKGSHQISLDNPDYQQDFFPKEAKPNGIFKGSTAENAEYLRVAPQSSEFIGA

For the compound `CC(C)n1c(Nc2ccc(F)c(Cl)c2)nc2cnc(Nc3ccc(C(=O)NN4CCN(C)CC4)cc3)nc21` [Compound 8-2], the “The kinase activity inhibitory rate (%) by the tested compounds at 10 μM MET” value at MET came to 100%. Also, the IC50 (as a rule, the midpoint of a concentration-inhibition curve) is above 1000 nM at VEGFR2; above 10000 nM in assay [1]; 883 nM in assay [2]; 558 nM in assay [3]; 1.3 nM in assay [4]; 0.001 µM on EGFR L858R mutant type. The IC50 against EGFR wild type is 0.002 µM; in assay [5], below 0.001 µM. The “The kinase activity inhibitory rate (%) by the tested compounds at 10 μM PDGFRα” value at PDGFRα was 84%. Moreover, the “The kinase activity inhibitory rate (%) by the tested compounds at 10 μM ALK” value on ALK stood at 63%. Besides, the “The kinase activity inhibitory rate (%) by the tested compounds at 10 μM c-SRC” value at c-SRC came out at 99%. For the same compound, the “The kinase activity inhibitory rate (%) by the tested compounds at 10 μM BTK” value at BTK amounted to 98%. Moreover, the “The kinase activity inhibitory rate (%) by the tested compounds at 10 μM c-KIT” value on c-KIT is 90%. In addition, the “The kinase activity inhibitory rate (%) by the tested compounds at 10 μM FLT3” value on FLT3 stood at 78%.

As to `CC(C)n1c(Nc2ccccc2)nc2cnc(Nc3ccc(C(=O)NC4CCN(C)CC4)cc3)nc21` [Compounds 8-9], the “The kinase activity inhibitory rate (%) by the tested compounds at 10 μM MET” value at MET stood at 67%. The IC50 was above 1000 nM against VEGFR2; above 10000 nM in assay [1]; 160 nM in [2]; 72.3 nM in assay [3]; 4.2 nM in assay [4]; 0.0004 µM against EGFR L858R mutant type. For the same compound, the IC50 was below 0.001 µM against EGFR wild type and 0.006 µM in assay [5]. Further, on PDGFRα, the “The kinase activity inhibitory rate (%) by the tested compounds at 10 μM PDGFRα” value was found to be 88%. Further, the “The kinase activity inhibitory rate (%) by the tested compounds at 10 μM ALK” value at ALK was determined as 36%. The “The kinase activity inhibitory rate (%) by the tested compounds at 10 μM c-SRC” value on c-SRC is listed as 98%. Besides, the “The kinase activity inhibitory rate (%) by the tested compounds at 10 μM BTK” value at BTK is reported as 88%. For the same compound, the “The kinase activity inhibitory rate (%) by the tested compounds at 10 μM c-KIT” value at c-KIT was 96%. Further, the “The kinase activity inhibitory rate (%) by the tested compounds at 10 μM FLT3” value on FLT3 is on record as 76%.

Consider `CN1CCN(c2ccc(Nc3ncc4nc(Nc5ccccc5)n(C5CC5)c4n3)cc2)CC1` [Compounds 8-23], for which the “The kinase activity inhibitory rate (%) by the tested compounds at 10 μM MET” value on MET is given as 1%. In addition, the IC50 against VEGFR2 was above 1000 nM; in assay [1], above 10000 nM; in assay [2], 154 nM; in assay [3], 35.9 nM; in assay [4] it was 0.2 nM; at EGFR L858R mutant type it was 0.002 µM. Moreover, the figures for the IC50 (on EGFR wild type; in [5]) were 0.007 µM and 0.041 µM, respectively. Also, on PDGFRα, the “The kinase activity inhibitory rate (%) by the tested compounds at 10 μM PDGFRα” value worked out at 28%. For the same compound, at ALK, the “The kinase activity inhibitory rate (%) by the tested compounds at 10 μM ALK” value stood at 3%. The “The kinase activity inhibitory rate (%) by the tested compounds at 10 μM c-SRC” value on c-SRC is recorded as 83%. Besides, the “The kinase activity inhibitory rate (%) by the tested compounds at 10 μM BTK” value at BTK was 30%. For the same compound, the “The kinase activity inhibitory rate (%) by the tested compounds at 10 μM c-KIT” value at c-KIT is on record as 26%. In addition, the “The kinase activity inhibitory rate (%) by the tested compounds at 10 μM FLT3” value at FLT3 is recorded as 68%.

As for `CC(C)n1c(Nc2ccc(C(F)(F)F)cc2)nc2cnc(Nc3ccc(N4CCN(C)CC4)cc3)nc21` [Compounds 8-27], on MET, the “The kinase activity inhibitory rate (%) by the tested compounds at 10 μM MET” value is 36%. Moreover, the IC50 on VEGFR2 was 9 nM; in assay [1], above 10000 nM; in assay [2] it was 4190 nM; in [3], 115 nM; in assay [4] it was 82.3 nM; on EGFR L858R mutant type, 0.005 µM. Besides, the IC50 against EGFR wild type is 0.034 µM; in assay [5], 0.054 µM. For the same compound, the “The kinase activity inhibitory rate (%) by the tested compounds at 10 μM PDGFRα” value at PDGFRα was found to be 68%. Moreover, on ALK, the “The kinase activity inhibitory rate (%) by the tested compounds at 10 μM ALK” value is given as 30%. Moreover, the “The kinase activity inhibitory rate (%) by the tested compounds at 10 μM c-SRC” value on c-SRC came out at 98%. Also, at BTK, the “The kinase activity inhibitory rate (%) by the tested compounds at 10 μM BTK” value is listed as 74%. Also, at c-KIT, the “The kinase activity inhibitory rate (%) by the tested compounds at 10 μM c-KIT” value is 93%. The “The kinase activity inhibitory rate (%) by the tested compounds at 10 μM FLT3” value on FLT3 stood at 83%.

With `COc1cccc(Nc2nc3cnc(Nc4ccc(N5CCN(C)CC5)cc4)nc3n2C(C)C)c1` [Compounds 8-17], the “The kinase activity inhibitory rate (%) by the tested compounds at 10 μM MET” value at MET was 52%. Also, the IC50 at VEGFR2 is above 1000 nM; in assay [1], 1900 nM; in [2], 29.6 nM; in assay [3], 2.5 nM; in assay [4], 0.2 nM; against EGFR L858R mutant type, 0.001 µM. Besides, the IC50 (against EGFR wild type; in [5]) was 0.004 µM in each case. Moreover, at PDGFRα, the “The kinase activity inhibitory rate (%) by the tested compounds at 10 μM PDGFRα” value is on record as 72%. The “The kinase activity inhibitory rate (%) by the tested compounds at 10 μM ALK” value at ALK came to 35%. Moreover, on c-SRC, the “The kinase activity inhibitory rate (%) by the tested compounds at 10 μM c-SRC” value stood at 99%. Also, at BTK, the “The kinase activity inhibitory rate (%) by the tested compounds at 10 μM BTK” value was found to be 100%. Also, the “The kinase activity inhibitory rate (%) by the tested compounds at 10 μM c-KIT” value at c-KIT is 89%. Also, at FLT3, the “The kinase activity inhibitory rate (%) by the tested compounds at 10 μM FLT3” value was 86%.

Consider `COc1ccc(Nc2nc3cnc(Nc4ccc(N5CCN(C)CC5)cc4)nc3n2C(C)C)cc1` [Compounds 8-18], for which, at MET, the “The kinase activity inhibitory rate (%) by the tested compounds at 10 μM MET” value is reported as 7%. The IC50 against VEGFR2 was 21 nM; in assay [1] it was above 10000 nM; in assay [2], 531 nM; in assay [3], 34.9 nM; in [4], 117 nM; at EGFR L858R mutant type, 0.005 µM. Also, the IC50 at EGFR wild type was 0.03 µM; in assay [5], 0.057 µM. Further, the “The kinase activity inhibitory rate (%) by the tested compounds at 10 μM PDGFRα” value on PDGFRα came out at 60%. Further, the “The kinase activity inhibitory rate (%) by the tested compounds at 10 μM ALK” value on ALK came out at 13%. For the same compound, on c-SRC, the “The kinase activity inhibitory rate (%) by the tested compounds at 10 μM c-SRC” value amounted to 93%. In addition, on BTK, the “The kinase activity inhibitory rate (%) by the tested compounds at 10 μM BTK” value is listed as 56%. Further, the “The kinase activity inhibitory rate (%) by the tested compounds at 10 μM c-KIT” value on c-KIT was 76%. The “The kinase activity inhibitory rate (%) by the tested compounds at 10 μM FLT3” value on FLT3 came out at 75%.
